Laboratory results as given in patent US20150246141A1, “DIAGNOSTIC AGENTS WITH ENHANCED SENSITIVITY/SPECIFICITY” (BEN-GURION UNIVERSITY OF THE NEGEV RESEARCH AND DEVELOPMENT …, priority 2012, published 2015).

Legend:
[1] = tested on: cancerous colorectal tissue; assay: In situ labeling of surgically excised human colorectal cancer tissue specimens; details: PBS, 0.2 mg/ml; 20 minutes incubation, washed three times
Description: Polymer solution was dropped onto fresh surgical tissue specimens that were received 15 minutes after surgical excision. After 20 minutes of incubation with the polymeric probe, tissues were washed three times with a large volume of PBS. Tissues were then imaged immediately using the Odyssey® Infrared Imaging System (Li-Cor Biosciences, Lincoln, Nebr., USA.) with excitation wavelength of 780 nm and emission wavelength of 800 nm.

[2] = tested on: LS174T tumors; assay: Intraluminal (intracolonic) administration to mice bearing rectal LS174T tumors, NIR imaging of excised colon; assay type: in vivo, female athymic nude mice
Description: […] Then, the mice were sacrificed and the colons were removed. Each colon was spread on a clear film, and imaging was performed using the Odyssey® Infrared Imaging System (Li-Cor Biosciences, Lincoln, Nebr., USA.), with excitation wavelength of 780 nm and emission wavelength of 800 nm Results:

[3] = tested on: LS-174T human colorectal adenocarcinoma; assay: Murine orthotopic colorectal tumor model LS-174T, intraluminal instillation, imaging of excised colon and organs; assay type: in vivo, female athymic nude mice; details: polymer applied intraluminally
Description: The murine orthotopic colorectal tumor model LS-174T human colorectal adenocarcinoma cells (3×10^7 cells) were injected (600 μL) into the descending colonic wall of 13 anesthetized, female athymic nude mice, after an over night fast. […] Histopathological examination was performed on paraffin fixed colonic tissue specimens, after an H&E stain and verified that the carcinoma infiltrated within the mucosa, submucosa, and muscular layer
The mice were sacrificed 3 hrs post treatment, their colons exteriorized, separated, cut open, spread on a transparent film with the mucosal aspects upwards, and imaged by the Odyssey® Infrared Imaging System (Li-Cor Biosciences, Lincoln, Nebr., USA.) with excitation wavelength of 780 nm and emission wavelength of 800 nm.

[4] = tested on: HT29 tumors; assay: Intraluminal administration to mouse HT-29 tumor models, NIR imaging; assay type: in vivo, female athymic nude mice
Description: 20 min later the colon was washed extensively with PBS and then were allowed to recover for 3 h. Then, the mice were sacrificed and the colons were removed. Each colon was spread on a clear film, and imaging was performed using the Odyssey® Infrared Imaging System (Li-Cor Biosciences, Lincoln, Nebr., USA.), with excitation wavelength of 780 nm and emission wavelength of 800 nm Results:
FIGS. 4C and 4D provide results of similarly treated animals, 2 hours post-administration.

[5] = immediately post administration of 0.1 mg/ml (200 μg)

HPMA copolymer bearing IR783-S-Ph-COOH [P-(AP-IR783)]
binding to near healthy tissue [1]: very low binding
staining at cancerous region in the tissue (polyp and tumor) [1]: markedly intense staining
background staining in control mice without tumors ([2]; 40 μg per mouse (0.2 mg/ml), images taken at 4 hours following washing): very little background staining
staining in samples taken from mice having tumors ([2]; 40 μg per mouse (0.2 mg/ml), tumors verified by pathologic evaluation): clear staining was evident
tumor associated-vasculature staining ([2]; intraluminal application): staining was evident
accumulation in cancerous tissue ([2]; polymer applied intraluminally, LS174T tumor model): Selective accumulation
accumulation in cancerous tissue [3]: Selective accumulation
staining of region 4 (no tumors macroscopically; tumors in the submucosa) [4, 5]: stained intensely
staining of surface exposed regions (boxes 2, 3) [4, 5]: stained intensely
accumulation in cancerous tissue ([4]; polymer applied intraluminally, HT-29 tumor model): Selective accumulation
